According to patent US11976057B2, “MrgX2 antagonists” (GlaxoSmithKline Intellectual Property Development Limited, priority 2020, dated 2024):

Target: T1, human MRGPRX2 (Homo sapiens, UniProt Q96LB1)
T1 sequence (Q96LB1 1-330): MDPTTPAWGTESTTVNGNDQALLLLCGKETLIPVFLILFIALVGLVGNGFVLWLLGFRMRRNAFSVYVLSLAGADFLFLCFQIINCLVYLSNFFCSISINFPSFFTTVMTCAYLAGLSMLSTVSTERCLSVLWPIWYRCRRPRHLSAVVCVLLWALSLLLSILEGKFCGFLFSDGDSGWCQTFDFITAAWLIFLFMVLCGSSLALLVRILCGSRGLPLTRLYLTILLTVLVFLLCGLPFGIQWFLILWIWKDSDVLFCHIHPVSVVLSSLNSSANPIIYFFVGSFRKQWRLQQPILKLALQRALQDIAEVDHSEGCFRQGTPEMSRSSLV
Test: Ca2+ mobilization assay (FLIPR TETRA): inhibition of Cortistatin-14 mediated MRGPRX2 activation

| Structure (SMILES) | IC50 [nM] |
| --- | --- |
| C[C@@H](C(=O)Nc1ccc(Oc2ncc(F)cc2F)cn1)N1CCC(F)(F)[C@@H](c2ccc(=O)[nH]c2)C1 [Example 66, (S)-2-((S)-4,4-difluoro-3-(6-oxo-1,6-dihydropyridin-3-yl)piperidin-1-yl)-N-(5-((3,5-difluoropyridin-2-yl)oxy)pyridin-2-yl)propanamide] | ≤ 10 |
| CC(C(=O)Nc1ccc(F)cn1)N1CCC(F)(F)C(c2ccc(=O)n(Cc3ncco3)c2)C1 (stereo not shown) [Example 198, 2-(4,4-difluoro-3-(1-(oxazol-2-ylmethyl)-6-oxo-1,6-dihydropyridin-3-yl)piperidin-1-yl)-N-(5-fluoropyridin-2-yl)propanamide] | 10 to 100 |
| C[C@@H](C(=O)Nc1cnc(Oc2ccccc2)cn1)N1CCC(F)(F)[C@@H](c2ccc(=O)[nH]c2)C1 [Example 60, (S)-2-((S)-4,4-difluoro-3-(6-oxo-1,6-dihydropyridin-3-yl)piperidin-1-yl)-N-(5-phenoxypyrazin-2-yl)propanamide] | 10 to 100 |
| C[C@@H](C(=O)Nc1ccc(Cl)cn1)N1CCC(F)(F)[C@@H](c2c[nH]c(=O)cn2)C1 [Example 136, (S)-N-(5-chloropyridin-2-yl)-2-((R)-4,4-difluoro-3-(5-oxo-4,5-dihydropyrazin-2-yl)piperidin-1-yl)propanamide] | 100 to 3160 |
| C[C@@H](C(=O)Nc1ccc(OCC2CC2)nn1)N1CCC(F)(F)[C@@H](c2c[nH]c(=O)cn2)C1 [Example 134, (S)-N-(6-(cyclopropylmethoxy)pyridazin-3-yl)-2-((R)-4,4-difluoro-3-(5-oxo-4,5-dihydropyrazin-2-yl)piperidin-1-yl)propanamide] | 10 to 100 |
| CC(C(=O)Nc1ccc(Oc2cccc(=O)[nH]2)cn1)N1CCC(F)(F)[C@@H](c2ccc(=O)[nH]c2)C1 (stereo partly drawn) [Example 267, 2-((S)-4,4-difluoro-3-(6-oxo-1,6-dihydropyridin-3-yl)piperidin-1-yl)-N-(5-((6-oxo-1,6-dihydropyridin-2-yl)oxy)pyridin-2-yl)propanamide] | 10 to 100 |
| C[C@@H](C(=O)Nc1ccc(OCC2CC2)nn1)N1CCC(F)(F)C(c2c[nH]c(=O)c(CO)c2)C1 (stereo partly drawn) [Example 154, (S)-N-(6-(cyclopropylmethoxy)pyridazin-3-yl)-2-(4,4-difluoro-3-(5-(hydroxymethyl)-6-oxo-1,6-dihydropyridin-3-yl)piperidin-1-yl)propanamide] | 100 to 3160 |
| C[C@@H](C(=O)Nc1ccc(Oc2ccc(F)cn2)cn1)[C@H]1CCC(F)(F)[C@@H](c2ccc(=O)[nH]c2)C1 [Example 279, (R)-2-((1S,3R)-4,4-difluoro-3-(6-oxo-1,6-dihydropyridin-3-yl)cyclohexyl)-N-(5-((5-fluoropyridin-2-yl)oxy)pyridin-2-yl)propanamide] | ≤ 10 |
| C[C@@H](C(=O)Nc1ccc(Oc2ccc(F)c(F)c2F)cn1)N1CCC(F)(F)[C@@H](c2cc[n+]([O-])cc2)C1 [Example 131, 4-((S)-4,4-difluoro-1-((S)-1-oxo-1-((5-(2,3,4-trifluorophenoxy)pyridin-2-yl)amino)propan-2-yl)piperidin-3-yl)pyridine 1-oxide] | ≤ 10 |
| CC(C(=O)Nc1ccc(OC2CC3(CCC3)C2)nn1)N1CCC(F)(F)[C@@H](c2ccc(=O)[nH]c2)C1 (stereo partly drawn) [Example 93, 2-((S)-4,4-difluoro-3-(6-oxo-1,6-dihydropyridin-3-yl)piperidin-1-yl)-N-(6-(spiro[3.3]heptan-2-yloxy)pyridazin-3-yl)propanamide] | 100 to 3160 |
| CNCc1cc(C2CN(C(C)C(=O)Nc3ccc(Oc4ccc(F)cc4)cn3)CCC2(F)F)c[nH]c1=O (stereo not shown) [Example 237, 2-(4,4-difluoro-3-(5-((methylamino)methyl)-6-oxo-1,6-dihydropyridin-3-yl)piperidin-1-yl)-N-(5-(4-fluorophenoxy)pyridin-2-yl)propanamide] | ≤ 10 |
| C[C@@H](C(=O)Nc1ccc(Oc2c(F)cc(F)cc2F)cn1)N1CCC(F)(F)[C@@H](c2ccc(=O)[nH]c2)C1 [Example 96, (S)-2-((S)-4,4-difluoro-3-(6-oxo-1,6-dihydropyridin-3-yl)piperidin-1-yl)-N-(5-(2,4,6-trifluorophenoxy)pyridin-2-yl)propanamide] | ≤ 10 |
| C[C@@H](C(=O)Nc1ccc(Cl)cn1)N1CCC[C@@H](c2ccc(=O)n(C)c2)C1 [Example 176, (S)—N-(5-chloropyridin-2-yl)-2-((S)-3-(1-methyl-6-oxo-1,6-dihydropyridin-3-yl)piperidin-1-yl)propanamide] | 3160 to 31600 |
| CC(C(=O)Nc1ccc(Oc2ccccc2)cn1)N1CCC(F)(F)C(c2c[nH]c(=O)c(N)c2)C1 (stereo not shown) [Example 139, 2-(3-(5-amino-6-oxo-1,6-dihydropyridin-3-yl)-4,4-difluoropiperidin-1-yl)-N-(5-phenoxypyridin-2-yl)propanamide] | 10 to 100 |
| C[C@@H](C(=O)Nc1ccc(Oc2ccc(F)cc2)cn1)N1CCC(F)(F)[C@@H](c2cc[n+]([O-])c(CO)c2)C1 [Example 254, 4-((S)-4,4-difluoro-1-((S)-1-((5-(4-fluorophenoxy)pyridin-2-yl)amino)-1-oxopropan-2-yl)piperidin-3-yl)-2-(hydroxymethyl)pyridine 1-oxide] | ≤ 10 |
| CC(C(=O)Nc1ccc(F)cn1)N1CCC(F)(F)C(c2ccc(=O)n(Cc3ccccn3)c2)C1 (stereo not shown) [Example 196, 2-(4,4-difluoro-3-(6-oxo-1-(pyridin-2-ylmethyl)-1,6-dihydropyridin-3-yl)piperidin-1-yl)-N-(5-fluoropyridin-2-yl)propanamide] | 10 to 100 |
| C[C@@H](C(=O)Nc1ccc(F)cn1)N1CCC(F)(F)[C@@H](c2ccc(=O)n(CC(F)(F)F)c2)C1 [Example 3, (S)-2-((S)-4,4-difluoro-3-(6-oxo-1-(2,2,2-trifluoroethyl)-1,6-dihydropyridin-3-yl)piperidin-1-yl)-N-(5-fluoropyridin-2-yl)propanamide] | ≤ 10 |
| C[C@@H](C(=O)Nc1ccc(OCC2CC2)nn1)N1CCC(F)(F)[C@@H](c2c[nH]c(=O)c(CN3CCOCC3)c2)C1 (single isomer, unassigned) [Example 225] | 100 to 3160 |

Now from value to compound:

| IC50 [nM] | Structure (SMILES) |
| --- | --- |
| ≤ 10 | C[C@@H](C(=O)Nc1ccc(Oc2ccc(F)cn2)cn1)[C@H]1CCC(F)(F)[C@@H](c2cc[n+]([O-])cc2)C1 [Example 294, 4-((1R,5S)-2,2-difluoro-5-((R)-1-((5-((5-fluoropyridin-2-yl)oxy)pyridin-2-yl)amino)-1-oxopropan-2-yl)cyclohexyl)pyridine 1-oxide] |
| ≤ 10 | C[C@@H](C(=O)Nc1cnc(Oc2ccc(F)cc2F)cn1)N1CCC(F)(F)[C@@H](c2c[nH]c(=O)c(CN3CCOCC3)c2)C1 [Example 229, (S)-2-((S)-4,4-difluoro-3-(5-(morpholinomethyl)-6-oxo-1,6-dihydropyridin-3-yl)piperidin-1-yl)-N-(5-(2,4-difluorophenoxy)pyrazin-2-yl)propanamide] |
| 100 to 3160 | C[C@@H](C(=O)Nc1ccc(Cl)cn1)N1CCC[C@@H](c2ccc(=O)[nH]c2)C1 [Example 158, (S)—N-(5-chloropyridin-2-yl)-2-((S)-3-(6-oxo-1,6-dihydropyridin-3-yl)piperidin-1-yl)propanamide] |
| 100 to 3160 | C[C@@H](C(=O)Nc1ccc(F)cn1)N1CCC(F)(F)[C@@H](c2c[nH]c(=O)c(N)c2)C1 [Example 142, (S)-2-((S)-3-(5-amino-6-oxo-1,6-dihydropyridin-3-yl)-4,4-difluoropiperidin-1-yl)-N-(5-fluoropyridin-2-yl)propanamide] |
| 10 to 100 | C[C@@H](C(=O)Nc1ccc(OCC2CC2)cn1)N1CCC(F)(F)[C@@H](c2c[nH]c(=O)c(C(C)(C)O)c2)C1 [Example 152, (S)—N-(5-(cyclopropylmethoxy)pyridin-2-yl)-2-((S)-4,4-difluoro-3-(5-(2-hydroxypropan-2-yl)-6-oxo-1,6-dihydropyridin-3-yl)piperidin-1-yl)propanamide] |
| ≤ 10 | CC(C(=O)Nc1cnc(Oc2ccc(F)cc2F)cn1)N1CCC(F)(F)C(c2cc[n+]([O-])c(C(N)=O)c2)C1 (stereo not shown) [Example 260, 2-carbamoyl-4-(1-(1-((5-(2,4-difluorophenoxy)pyrazin-2-yl)amino)-1-oxopropan-2-yl)-4,4-difluoropiperidin-3-yl)pyridine 1-oxide] |
| 10 to 100 | C[C@@H](C(=O)Nc1ccc(C(F)(F)c2ccc(F)cc2)cn1)N1CCC(F)(F)[C@@H](c2ccc(=O)[nH]c2)C1 [Example 102, (S)-N-(5-(difluoro(4-fluorophenyl)methyl)pyridin-2-yl)-2-((S)-4,4-difluoro-3-(6-oxo-1,6-dihydropyridin-3-yl)piperidin-1-yl)propanamide] |
| 10 to 100 | C[C@@H](C(=O)Nc1cnc(Oc2ccc(F)cc2)cn1)N1CCC(F)(F)[C@@H](c2c[nH]c(=O)c(CN)c2)C1 [Example 206, (S)-2-((S)-3-(5-(aminomethyl)-6-oxo-1,6-dihydropyridin-3-yl)-4,4-difluoropiperidin-1-yl)-N-(5-(4-fluorophenoxy)pyrazin-2-yl)propanamide] |
| ≤ 10 | C[C@@H](C(=O)Nc1ccc(Oc2ccc(F)cc2)cn1)N1CCC(F)(F)[C@@H](c2c[nH]c(=O)c(N)n2)C1 [Example 108, (S)-2-((R)-3-(6-amino-5-oxo-4,5-dihydropyrazin-2-y1)-4,4-difluoropiperidin-1-y1)-N-(5-(4-fluorophenoxy)pyridin-2-yl)propanamide] |
| 100 to 3160 | C[C@@H](C(=O)Nc1cnc(C2CC2)cn1)N1CCC(F)(F)[C@@H](c2ccc(=O)[nH]c2)C1 [Example 70, (S)-N-(5-cyclopropyl-pyrazin-2-yl)-2-((S)-4,4-difluoro-3-(6-oxo-1,6-dihydropyridin-3-yl)piperidin-1-yl)propanamide] |
